≈ marks a conversion by molar mass, not a printed value. Non-standard residues stand in square brackets, D forms with d. Residues, ends and D or L forms follow the SMILES beside them. Gly(NCH2CH2Ph) = O=C(O)CNCCc1ccccc1; Gly(N-2-aminoethyl) = NCCNCC(=O)O; hPhe = N[C@@H](CCc1ccccc1)C(=O)O; Gly(N(CH2)3NH2) = NCCCNCC(=O)O; Orn = NCCC[C@H](N)C(=O)O; Nlys = NCCCCNCC(=O)O
Assays:
[1] = Relative hydrophobicity by RP-HPLC (% MeCN at peak elution); format: physicochemical; settings: RP-HPLC gradient 0 → 60% B during 10 min; % MeCN at peak elution calculated from retention time
Description: The relative hydrophobicity of each peptidomimetic was measured by reverse-phase high-performance liquid chromatography (RP-HPLC). Typically, the RP-HPLC retention time (or percentage acetonitrile at peak elution) constitutes the preferred measure that allows for comparison of relative hydrophobicity, while log P values of polycationic peptides or peptidomimetics normally are considered unsuitable due to the extreme hydrophilic nature of such compounds [11, 45, 57, 58, 59, 60]. […] For both subgroups III (with cationic amino acid residues and the peptoid analogue of Phe, NPhe, i.e., 9–12) and IV (with cationic amino acid residues and the peptoid analogue of hPhe, NhPhe, i.e., 13–16) only minor differences in hydrophobicity were seen. These observations infer that, when the cationic residues are of a peptoid nature, the side-chain length of these has a […] influence on the hydrophobicity. […] Thus, introduction of additional six methylene groups results, as expected, in increased hydrophobicity.
Starting materials and solvents were purchased from commercial suppliers (Iris Biotech, Markredwitz, Germany; Fluorochem, Hadfield, United Kingdom; and Merck, Darmstadt, Germany) and used without further purification. Water used for analytical and preparative high-performance liquid chromatography (HPLC) was filtered through a 0.22-μm Millipore membrane filter. Purity and retention time of each peptidomimetic were determined by analytical UHPLC by using a Phenomenex Luna C18(2) HST column (100 mm × 3 mm; particle size: 2.5 μm; pore size: 100 Å) on a Shimadzu Prominence and Shimadzu Nexera system using an aqueous acetonitrile (MeCN) gradient with 0.1% trifluoroacetic acid (TFA) added (eluent A: 5:95 MeCN–H2O + 0.1% TFA, eluent B: 95:5 MeCN–H2O + 0.1% TFA); a flow rate of 0.5 mL/min was used. For elution of peptidomimetics, a linear gradient of 0% to 60% B during 10 min was used with UV detection at λ = 220 nm. […] For each peptidomimetic, the percentage of MeCN at peak elution was calculated from the retention time by using the following formula:(1) %MeCN = 0.95 (0.6Rt/10 min.) + 0.05 (1−0.6Rt/10 min.).

[2] = system: A. baumannii ATCC 19606; format: cell-based; settings: ATCC 19606, 20 h
Description: (§1) MIC values were evaluated by using the modified Hancock lab protocol in non-binding polystyrene microtitre plates, with bacterial suspensions of ∼2 × 10^5 CFU/mL in Mueller-Hinton broth (Difco, Sparks MD, USA), with Mg^2+ and Ca^2+ concentrations of 4 mg/L each. The compounds were dissolved in H2O and diluted in 0.01% acetic acid, 0.2% BSA (final concentration). Aliquots of 11 µL of 10 × test compounds were then transferred to the appropriate wells with bacterial suspensions. For preparation and transfer of the solutions of the compounds, low-binding sterile tubes and tips (Axygen, Union City CA, USA) were used. After 20 h incubation of covered plates at 35 °C (±2 °C) with circular shaking at 220 rpm, the MICs were read. The antibacterial activity of peptidomimetics was tested against E. coli ATCC 25922, K. pneumoniae ATCC 13883, P. aeruginosa ATCC 27853, P. aeruginosa PAO1, A. baumannii ATCC 19606, S. aureus ATCC 29213, and E. faecalis ATCC 29212.

[3] = system: E. coli ATCC 25922; format: cell-based; settings: ATCC 25922, 20 h
Description: as §1

[4] = system: E. faecalis ATCC 29212; format: cell-based; settings: for MIC: ATCC 29212, 20 h
Description: as §1

[5] = system: K. pneumoniae ATCC 13883; format: cell-based; settings: ATCC 13883, 20 h
Description: as §1

[6] = system: P. aeruginosa ATCC 27853; format: cell-based; settings: ATCC 27853, 20 h
Description: as §1

[7] = system: P. aeruginosa PAO1; format: cell-based; settings: PAO1, 20 h
Description: as §1

[8] = system: S. aureus ATCC 29213; format: cell-based; settings: for MIC: ATCC 29213, 20 h
Description: as §1

[9] = system: HepG2 cell line ATCC HB-8065; experiment: in vitro; format: cell-based; settings: 48 h
Description: Side effects affecting cell viability were estimated on the HepG2 cell line ATCC HB-8065. In brief, HepG2 cells were seeded in flat-bottomed 96-well plates at a concentration of 5000 cells per well. At 80−90% confluency, the cells were incubated for 24 h in a humidified incubator (5% CO2, 37 °C). The medium was removed, and the cells were incubated for 48 h in a humidified incubator (5% CO2, 37 °C) with compounds in two-fold serial dilutions. An MTT assay was then performed as previously described. In brief, after incubation with the test compounds, the culture medium was removed and fresh medium with 0.2 mg/mL MTT was added in each well of the plate. After incubation (3 h, 37 °C, 5% CO2), the medium with MTT was removed, and 200 μL dimethyl sulfoxide were added at once to each sample. Absorbance of MTT was measured using spectrophotometer TECAN Infinite M1000 at 540 nm. The relative viability was calculated by using the formula: ODtreated cells × 100/ODcontrol cells. The IC50 values are calculated by using the program Graph Pad Prism® 5.0. For all compounds, the test range was 10–1280 μg/mL.

[10] = in vitro; format: cell-based; settings: human, Hemolytic Activity (percentage hemolysis)
Description: The lysis of human red blood cells was measured as previously described, with modifications. In brief, freshly drawn human red blood cells (hRBCs) were washed three times with PBS buffer and centrifuged two times for 5 min at 2500 rpm. A two-fold serial dilution of peptidomimetics in PBS buffer was added to each well in a sterile polypropylene V-bottom 96-well plate to the total volume of 75 μL. A 0.5% v/v hRBC suspension (75 μL in PBS buffer) was added to each well to reach a final volume of 150 μL in each well. The plate was incubated (37 °C) for 60 min, and then the cells were subsequently pelleted by centrifugation at 1000 rpm for 5 min. The supernatants (50 μL) were transferred to clear, flat-bottomed plastic 96-well plates. The concentration of hemoglobin was detected by measuring the OD at 405 nm. The OD of cells incubated with 0.1% SDS defined 100% hemolysis, while the OD of cells incubated with PBS buffer defined 0% hemolysis. The concentrations tested were 200, 400, and 800 μg/mL (only average values for the highest concentration are stated in Table 2).

SMILES | Hydrophobicity (% MeCN at elution) [1] [%] | MIC [2] [µg/mL] | MIC [3] [µg/mL] | MIC [4] [µg/mL] | Activity against E. faecalis (in words) ([4]; E. faecalis) | MIC [5] [µg/mL] | MIC [6] [µg/mL] | MIC [7] [µg/mL] | MIC [8] [µg/mL] | Activity against S. aureus (in words) [8] | IC50 for inhibiting growth of HepG2 cells [9] [µg/mL] | hemolysis at 60 min, 800 µg/mL [10] [%]
NCCNCC(=O)N[C@@H](CCc1ccccc1)C(=O)N(CCN)CC(=O)N[C@@H](CCc1ccccc1)C(=O)N(CCN)CC(=O)N[C@@H](CCc1ccccc1)C(=O)N(CCN)CC(=O)N[C@@H](CCc1ccccc1)C(=O)N(CCN)CC(=O)N[C@@H](CCc1ccccc1)C(=O)N(CCN)CC(=O)N[C@@H](CCc1ccccc1)C(N)=O [Peptidomimetic 5] (H-[Gly(N-2-aminoethyl)][hPhe][Gly(N-2-aminoethyl)][hPhe][Gly(N-2-aminoethyl)][hPhe][Gly(N-2-aminoethyl)][hPhe][Gly(N-2-aminoethyl)][hPhe][Gly(N-2-aminoethyl)][hPhe]-NH2) | 43.5 | >64 | 4 (≈ 2.52 µM) | 32 (≈ 20.2 µM) | weak activity | 64 (≈ 40.4 µM) | 4 (≈ 2.52 µM) | 16 (≈ 10.1 µM) | 8 (≈ 5.05 µM) | moderate activity | 307 | –
NCCCNCC(=O)N[C@@H](CCc1ccccc1)C(=O)N(CCCN)CC(=O)N[C@@H](CCc1ccccc1)C(=O)N(CCCN)CC(=O)N[C@@H](CCc1ccccc1)C(=O)N(CCCN)CC(=O)N[C@@H](CCc1ccccc1)C(=O)N(CCCN)CC(=O)N[C@@H](CCc1ccccc1)C(=O)N(CCCN)CC(=O)N[C@@H](CCc1ccccc1)C(N)=O [Peptidomimetic 6] (H-[Gly(N(CH2)3NH2)][hPhe][Gly(N(CH2)3NH2)][hPhe][Gly(N(CH2)3NH2)][hPhe][Gly(N(CH2)3NH2)][hPhe][Gly(N(CH2)3NH2)][hPhe][Gly(N(CH2)3NH2)][hPhe]-NH2) | 41.2 | >64 | 4 (≈ 2.4 µM) | >64 | – | >64 | 8 (≈ 4.79 µM) | 16 to 32 | 16 (≈ 9.59 µM) | moderate activity | 456 | 8
NCCCCNCC(=O)N[C@@H](CCc1ccccc1)C(=O)N(CCCCN)CC(=O)N[C@@H](CCc1ccccc1)C(=O)N(CCCCN)CC(=O)N[C@@H](CCc1ccccc1)C(=O)N(CCCCN)CC(=O)N[C@@H](CCc1ccccc1)C(=O)N(CCCCN)CC(=O)N[C@@H](CCc1ccccc1)C(=O)N(CCCCN)CC(=O)N[C@@H](CCc1ccccc1)C(N)=O [Peptidomimetic 7] (H-[Nlys][hPhe][Nlys][hPhe][Nlys][hPhe][Nlys][hPhe][Nlys][hPhe][Nlys][hPhe]-NH2) | 40.6 | >64 | 2 to 4 | >64 | – | >64 | 32 (≈ 18.3 µM) | 32 to 64 | >64 | – | 720 | 6
NCCC[C@H](NC(=O)CN(CCc1ccccc1)C(=O)[C@H](CCCN)NC(=O)CN(CCc1ccccc1)C(=O)[C@H](CCCN)NC(=O)CN(CCc1ccccc1)C(=O)[C@H](CCCN)NC(=O)CN(CCc1ccccc1)C(=O)[C@H](CCCN)NC(=O)CN(CCc1ccccc1)C(=O)[C@@H](N)CCCN)C(=O)N(CCc1ccccc1)CC(N)=O [Peptidomimetic 14] (H-[Orn][Gly(NCH2CH2Ph)][Orn][Gly(NCH2CH2Ph)][Orn][Gly(NCH2CH2Ph)][Orn][Gly(NCH2CH2Ph)][Orn][Gly(NCH2CH2Ph)][Orn][Gly(NCH2CH2Ph)]-NH2) | 40.5 | >64 | 4 to 8 | >64 | – | 32 (≈ 19.2 µM) | 8 (≈ 4.79 µM) | 8 to 16 | >64 | – | 684 | 11
NCCCC[C@H](NC(=O)CN(CCc1ccccc1)C(=O)[C@H](CCCCN)NC(=O)CN(CCc1ccccc1)C(=O)[C@H](CCCCN)NC(=O)CN(CCc1ccccc1)C(=O)[C@H](CCCCN)NC(=O)CN(CCc1ccccc1)C(=O)[C@H](CCCCN)NC(=O)CN(CCc1ccccc1)C(=O)[C@@H](N)CCCCN)C(=O)N(CCc1ccccc1)CC(N)=O [Peptidomimetic 15] (H-K[Gly(NCH2CH2Ph)]K[Gly(NCH2CH2Ph)]K[Gly(NCH2CH2Ph)]K[Gly(NCH2CH2Ph)]K[Gly(NCH2CH2Ph)]K[Gly(NCH2CH2Ph)]-NH2) | 40.5 | 64 (≈ 36.5 µM) | 4 (≈ 2.28 µM) | >64 | – | >64 | 16 (≈ 9.13 µM) | 8 to 16 | >64 | – | 595 | 8

— paper PMC6943742, “Peptide/Peptoid Hybrid Oligomers: The Influence of Hydrophobicity and Relative Side-Chain Length on Antibacterial Activity and Cell Selectivity” (Molecules, 2019)
